Measurements from ChEMBL document CHEMBL1201862, “PubChem BioAssay data set” (2004).
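A five-concentration, 48-hour dose response in 96-well plates underlies each endpoint, interpolated linearly between surrounding concentrations. GI50: concentration for 50% inhibition of growth.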 Calls of active or inactive are those of the source. Cut-off read from the data, not from the text of the source: active = GI50 up to about 1.1 µM and inactive = higher.

Key:
Test in all cases: inhibition of tumour cell growth, NCI panel, 48 h
SF-539 = system: SF-539
RXF 393 = system: RXF 393
SW-620 = system: SW-620
CCRF-CEM = system: CCRF-CEM
MOLT-4 = system: MOLT-4
MDA-N = system: MDA-N
A549 = system: A549
SN12C = system: SN12C
HCT-15 = system: HCT-15
A498 = system: A498
MCF7 = system: MCF7
SR = system: SR
COLO 205 = system: COLO 205
HCC 2998 = system: HCC 2998
UACC-62 = system: UACC-62
786-0 = system: 786-0
SF-295 = system: SF-295
MDA-MB-435 = system: MDA-MB-435
NCI/ADR-RES = system: NCI/ADR-RES
DMS-114 = system: DMS-114

Compound | GI50 (SF-539) | GI50 (RXF 393) | GI50 (SW-620) | GI50 (CCRF-CEM) | GI50 (MOLT-4) | GI50 (MDA-N) | GI50 (A549) | GI50 (SN12C) | GI50 (HCT-15) [µM] | GI50 (A498) | GI50 (MCF7) | GI50 (SR) | GI50 (COLO 205) | GI50 (HCC 2998) | GI50 (UACC-62) | GI50 (786-0) | GI50 (SF-295) | GI50 (MDA-MB-435) | GI50 (NCI/ADR-RES) | GI50 (DMS-114)
CC1=NN2C(=N)/C(=C/c3ccco3)C(=O)N=C2S1 | > 100 µM (inactive) | > 100 µM (inactive) | > 100 µM (inactive) | > 100 µM (inactive) | > 100 µM (inactive) | > 100 µM (inactive) | > 100 µM (inactive) | > 100 µM (inactive) | > 100 | > 100 µM (inactive) | > 100 µM (inactive) | 50.4 µM (inactive) | > 100 µM (inactive) | > 100 µM (inactive) | > 100 µM (inactive) | > 100 µM (inactive) | > 100 µM (inactive) | > 100 µM (inactive) | > 100 µM (inactive) | 
CC1=C2C(=O)O[C@@H](c3ccoc3)[C@]2(C)CCC1 [FRAXINELLONE] | > 100 µM (inactive) |  | > 100 µM (inactive) | > 100 µM (inactive) | > 100 µM (inactive) |  | > 100 µM (inactive) |  | > 100 |  |  | > 100 µM (inactive) | > 100 µM (inactive) | > 100 µM (inactive) | > 100 µM (inactive) | > 100 µM (inactive) | > 100 µM (inactive) |  |  | > 100 µM (inactive)
c1ccc(C2Nc3ccccc3C3OCCCC23)cc1 (centres undefined) | 16.1 µM (inactive) | 18.7 µM (inactive) | 26 µM (inactive) | 20.2 µM (inactive) | 24.9 µM (inactive) |  | 20.5 µM (inactive) | 38.5 µM (inactive) | 27 | 21.2 µM (inactive) |  |  | 35.4 µM (inactive) | 35.8 µM (inactive) | 11.6 µM (inactive) | 27.6 µM (inactive) | 16.6 µM (inactive) |  |  | 21.1 µM (inactive)
OC1c2ccccc2C2(O)C1C(c1ccccc1)C(c1ccccc1)C2(O)c1ccccc1 (centres undefined) | 12.6 µM (inactive) | 16 µM (inactive) | 15.8 µM (inactive) | 8.18 µM (inactive) | 3.98 µM (inactive) |  | 11.4 µM (inactive) | 11.4 µM (inactive) | 3.06 |  |  |  | 14 µM (inactive) | 11.2 µM (inactive) | 10.4 µM (inactive) | 11.5 µM (inactive) | 6.52 µM (inactive) |  |  | 13.6 µM (inactive)
CCOC(=O)CCC1(C(=O)OC)CCCC1=O (centres undefined) | > 100 µM (inactive) | > 100 µM (inactive) | > 100 µM (inactive) | > 10 µM (inactive) | > 100 µM (inactive) |  | > 100 µM (inactive) |  |  | > 100 µM (inactive) |  |  | > 100 µM (inactive) | > 100 µM (inactive) |  | > 100 µM (inactive) | > 100 µM (inactive) |  |  | > 100 µM (inactive)
CCOC(=O)c1cc([N+](=O)[O-])c(Sc2ncnc3nc[nH]c23)c([N+](=O)[O-])c1 | 3.09 µM (inactive) | 9.59 µM (inactive) | 2.18 µM (inactive) | 1.27 µM (inactive) | 1.87 µM (inactive) | 2.75 µM (inactive) | 20.5 µM (inactive) | 14.1 µM (inactive) | 2.48 | 12.7 µM (inactive) | 1.24 µM (inactive) | 3.24 µM (inactive) | 1.66 µM (inactive) | 17.8 µM (inactive) | 2.46 µM (inactive) | 2.79 µM (inactive) | 3.36 µM (inactive) | 2.47 µM (inactive) | 2.82 µM (inactive) | 
COC(=O)c1ccc(NCc2cc(O)ccc2O)cc1O | 1.91 µM (inactive) | 7.28 µM (inactive) | 6.55 µM (inactive) | 0.877 µM (active) | 2.09 µM (inactive) | 10.7 µM (inactive) | 12.2 µM (inactive) | 8.38 µM (inactive) | 11.9 | 20.7 µM (inactive) | 6.67 µM (inactive) | 5.48 µM (inactive) | 16.7 µM (inactive) | 13.8 µM (inactive) | 13.1 µM (inactive) | 8.07 µM (inactive) | 12.9 µM (inactive) | 11.1 µM (inactive) | 1.85 µM (inactive) | 
CN(C)c1ccc(C(c2ccc(Cl)cc2)c2ccc(N(C)C)cc2)cc1 | > 100 µM (inactive) | 28.8 µM (inactive) | > 100 µM (inactive) | 72.9 µM (inactive) | > 100 µM (inactive) | 82.8 µM (inactive) | > 100 µM (inactive) | > 100 µM (inactive) | > 100 | > 100 µM (inactive) | 49.1 µM (inactive) | 57.5 µM (inactive) | 34.7 µM (inactive) | 69 µM (inactive) | > 100 µM (inactive) | > 100 µM (inactive) | > 100 µM (inactive) | > 100 µM (inactive) | > 100 µM (inactive) | 
CC1(C)C2CC3C4CC5(Nc6ccccc6C5N41)[C@]3(C)CC2=O (some centres undefined) | > 50 µM (inactive) | > 50 µM (inactive) | > 50 µM (inactive) | > 50 µM (inactive) | > 50 µM (inactive) | > 50 µM (inactive) | > 50 µM (inactive) | > 50 µM (inactive) | > 50 | > 50 µM (inactive) | > 50 µM (inactive) | > 50 µM (inactive) | > 50 µM (inactive) | > 50 µM (inactive) | > 50 µM (inactive) | > 50 µM (inactive) | > 50 µM (inactive) | > 50 µM (inactive) | > 50 µM (inactive) | 
